Experimental data from PubChem BioAssay (NCI).
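Compound exposure: 48 hours, 5 concentrations, 96-well plates. TGI denotes the concentration required for complete inhibition of growth.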

How the values were obtained:
Experiment in all cases: NCI-60 cell line screen, 48 h
[1] = tested on: CAKI-1 renal
[2] = tested on: SR leukemia
[3] = tested on: T-47D breast
[4] = tested on: LOX IMVI melanoma
[5] = tested on: OVCAR-5 ovarian
[6] = tested on: DU-145 prostate
[7] = tested on: HCT-116 colon
[8] = tested on: HT29 colon
[9] = tested on: SW-620 colon
[10] = tested on: PC-3 prostate
[11] = tested on: U251 CNS
[12] = tested on: HOP-62 NSCLC
[13] = tested on: MDA-MB-231 breast

| SMILES | TGI [1] [µM] | TGI [2] [µM] | TGI [3] [µM] | TGI [4] [µM] | TGI [5] [µM] | TGI [6] [µM] | TGI [7] [µM] | TGI [8] [µM] | TGI [9] [µM] | TGI [10] [µM] | TGI [11] [µM] | TGI [12] [µM] | TGI [13] [µM] |
| --- | --- | --- | --- | --- | --- | --- | --- | --- | --- | --- | --- | --- | --- |
| COc1cc(NC(C)=O)ccc1C(=O)NN1C(=O)C(Cl)C1c1ccco1 (stereo not drawn) | > 100 | > 100 | > 100 | > 100 | > 100 | > 100 | > 100 | > 100 | > 100 | > 100 |  |  |  |
| CCN(CC)CCN1C(=O)c2c(c(-c3ccccc3)c3ccccc3c2-c2ccccc2)C1=O | > 100 |  |  | > 100 | > 100 |  | > 100 | > 100 | > 100 | > 100 | > 100 | > 100 | > 100 |
| CC(=O)Oc1cc2c(c3ncccc13)OC(C)(C)C2 | 21.3 | 6 | 81.2 |  | 29 | 28.7 | 27.5 | 36.9 | > 100 | > 100 | 31.8 | 30.6 | 24.4 |
| C[C@]12Cc3cnn(-c4ccc(F)cc4)c3NC1CC[C@@H]1C2CC[C@@]2(C)C1CC[C@@H]2O (stereo partly drawn) | 49.4 | 12.8 | 17 |  | 30.5 | 27.8 | 16.6 | 3.81 | 13.6 | 21.9 | 21.7 | 26.1 | 46.9 |
| O=C(Cc1csc(N=Nc2c(O)[nH]c3ccccc23)n1)Nc1ccccc1 | 53.4 |  | > 100 | > 100 | > 100 | 91.5 | 50.8 | 59 | > 100 |  | 55.2 | 52.2 | > 100 |
| c1ccc(P(CCP(c2ccccn2)c2ccccn2)c2ccccc2)cc1 | > 100 | > 100 | > 100 | > 100 | > 100 | > 100 | > 100 | > 100 | > 100 | 72.6 | > 100 | > 100 |  |
| O=C1CC(=O)NC(=NN2C(=O)/C(=C/c3ccccc3)N=C2c2ccccc2)N1 | > 100 | > 100 | > 100 |  | > 100 | > 100 | > 100 | > 100 | > 100 | > 100 | > 100 | > 100 | > 100 |
| COc1cc(/C=C2/SC(c3ccccc3)N(c3ccccc3)C2=O)cc(OC)c1OC (stereo not drawn) | > 100 | > 100 | > 100 | > 100 | > 100 | > 100 | > 100 |  | > 100 |  | > 100 | > 100 | > 100 |
| C/C=C1/CN2CCC3(O)c4ccccc4N4C=C(C(=O)OC)C1CC2C43O (stereo not drawn) | > 100 | > 100 | > 100 | > 100 | > 100 | > 100 | > 100 | > 100 | > 100 | > 100 | > 100 | > 100 |  |
| NC(=O)NC(=O)c1cccc(CNc2ccc(C(=O)N[C@@H](CCC(=O)O)C(=O)O)cc2)n1 | > 100 | > 100 |  | > 100 | > 100 | > 100 | > 100 | > 100 | > 100 | > 100 | > 100 |  | > 100 |
| CCOC(=O)Cc1csc2[n+]1C(=O)/C(=C\c1cccc(Cl)c1Cl)S2 | 48.7 |  |  | 42.2 | > 100 | 46.3 | 25.7 | 41.2 | 56.6 | 37.7 | 64.6 | 46.9 | 87.4 |
| O=C(CCCNc1nc(-c2ccccc2)cs1)c1cccs1 | > 100 | > 100 | > 100 | > 100 | > 100 |  | > 100 | > 100 | > 100 | > 100 | > 100 | > 100 | > 100 |
| COC(C(=O)C(O)C(C)O)C1CC2C=C3C=C(OC4CC(OC5CC(O)C(OC)C(C)O5)C(OC(C)=O)C(C)O4)C(C)C(=O)C3=C(O)C2=C(O)C1OC1CC(OC2CC(OC3CC(C)(O)C(OC(=O)C(C)C)C(C)O3)C(O)C(C)O2)C(O)C(C)O1 (stereo not drawn) | > 100 | < 0.01 | < 0.01 |  |  | < 0.01 | > 100 |  |  |  |  | < 0.01 | < 0.01 |
| [N-]=[N+]=Nc1c(C=O)c(=O)n(-c2ccccc2)c2ccccc12 | 27.7 |  | 61.4 | 31.3 | > 100 | > 100 |  | 55.1 | 7.53 | 43.8 | > 100 | > 100 | > 100 |
| Cc1ccc2c(sc(-c3ccc4c(c3)sc(-c3ccc5c(c3)sc(-c3ccc(N(C)C)cc3)[n+]5C)[n+]4C)[n+]2C)c1S(=O)(=O)O (tested in a mixture with another compound) |  |  | > 100 | > 100 | > 100 | > 100 | > 100 | > 100 | > 100 | > 100 | > 100 |  | > 100 |
| Brc1c(C#CCC(c2ccccc2)(c2ccccc2)c2ccccc2)ccc(C#CCC(c2ccccc2)(c2ccccc2)c2ccccc2)c1Br | > 100 | > 100 | > 100 |  | > 100 | > 100 | > 100 | > 100 | > 100 | > 100 | > 100 |  | > 100 |
| CS(=O)(=O)c1c(N)c2nc(Cl)cn2c2nc3ccccc3nc12 | > 100 | > 100 |  | > 100 | > 100 |  | > 100 | > 100 | > 100 |  | > 100 | > 100 |  |
| O=c1[nH]c2cc([N+](=O)[O-])ccc2nc1/C(=N/Nc1ccccc1)C(O)c1ccc(C(O)/C(=N\Nc2ccccc2)c2cnc3cc([N+](=O)[O-])ccc3n2)cc1 (stereo not drawn) | > 100 | > 100 |  |  | 72.9 |  | > 100 | > 100 | > 100 |  |  | > 100 |  |
| CCOC(=O)C(C(=O)c1ccccc1C(=O)OC)=P(c1ccccc1)(c1ccccc1)c1ccccc1 | > 10 |  | > 10 | > 10 | > 10 | > 10 | > 10 | > 10 | > 10 | > 10 | > 10 | > 10 | > 10 |

| SMILES | TGI [1] [µM] | TGI [2] [µM] | TGI [3] [µM] | TGI [4] [µM] | TGI [5] [µM] | TGI [6] [µM] | TGI [7] [µM] | TGI [8] [µM] | TGI [9] [µM] | TGI [10] [µM] | TGI [11] [µM] | TGI [12] [µM] | TGI [13] [µM] |
| --- | --- | --- | --- | --- | --- | --- | --- | --- | --- | --- | --- | --- | --- |
| CCOc1ccc(NC(=O)/C(=N\NC(C)(C)C)C2C(=O)Nc3ccccc3S2=O)cc1 (stereo not drawn) |  | > 100 | > 100 |  | > 100 | > 100 | > 100 | > 100 | > 100 | > 100 | > 100 | > 100 |  |
| N#CC(C#N)=C(N)/C(C#N)=C/c1ccc2ccccc2n1 | 65.1 |  | > 100 | 46 | > 100 | > 100 | 28.4 | 35.9 |  | 79.4 |  | 33 | 72.5 |
| N#CC(=C1CCCCC1)c1nc2ccccc2o1 | > 100 | > 100 | > 100 |  | > 100 | > 100 | > 100 | > 100 |  | > 100 | > 100 | > 100 | > 100 |
| Cc1oc(N)c(S(=O)(=O)c2ccc(Cl)cc2)c1C |  | > 100 | > 100 |  | > 100 | > 100 | > 100 | > 100 | > 100 | 78 | > 100 |  |  |
| COc1cc(C)cc2c1c(=O)c1ccccc1n2C | > 100 | 78.7 |  | 53.6 | > 100 | > 100 | 76.3 | > 100 | > 100 | > 100 | 96.1 | > 100 | > 100 |
| CCCCc1ccc(Nc2nc(=S)c3[nH]cnc3[nH]2)cc1 | 92.6 |  | 49.3 | 31.7 | 43.5 | > 100 | > 100 | 22 | 60.9 | > 100 | > 100 |  | 83.3 |
| CCOC(=O)Cc1csc2[n+]1C(=O)/C(=C/c1cccc(OC)c1O)S2 | > 100 |  | > 100 | > 100 | > 100 | > 100 | > 100 | > 100 | > 100 | > 100 | > 100 | > 100 | > 100 |
| C/C1=C/C(C)CC(C)OC(=O)C(C)NC(=O)C(Cc2ccc(O)c(I)c2)N(C)C(=O)C(C)NC(=O)C(C)C1 (stereo not drawn) |  | 5.8 | 29.1 | < 0.01 | > 100 | > 58.1 | > 48.7 | > 40.7 | > 100 |  | 0.892 | < 0.01 | 0.963 |
| CC(C)(C)NC(=O)NC12CC3CC(CC(F)(C3)C1)C2 |  |  |  | > 100 | > 100 |  | > 100 | > 100 | > 100 |  | > 100 | > 100 |  |
| Cc1cccc(CC(Cc2c(C)cccc2C(=O)O)C(=O)O)c1 (stereo not drawn) | > 100 | > 100 |  | > 100 | > 100 | > 100 | > 100 | > 100 | > 100 | > 100 | > 100 | > 100 | > 100 |
| CCCCSC1=N/C(=C\c2ccc(N(C)C)cc2)C(NN)=N1 | > 100 |  | > 100 | > 100 | > 100 | > 100 | > 100 | > 100 | > 100 | > 100 | > 100 | > 100 | > 100 |
| CC1=CCC2C3(C)CCC2(C(C)C)C1C3 (stereo not drawn) (tested in a mixture with another compound) | 40.7 |  | > 100 | 87.8 | 37.6 | 68 | > 100 | 32.4 | 53.7 | > 100 | 50.8 | 57.5 | 55.6 |
| CCOC(=O)c1nc2ccccc2nc1Nc1ccc(OC)c(OC)c1 | > 100 | > 100 | > 100 |  | > 100 | > 100 | > 100 | > 100 |  |  | > 100 | > 100 | > 100 |
| Cc1nc(C(N)=S)sc1C(/C=C/c1ccc(Cl)c(Cl)c1)=N/NC(C)(C)C | > 100 |  |  | > 100 |  | > 100 | > 100 | > 100 | > 100 | > 100 | > 100 |  | > 100 |
| CC1(C)CC(=O)C2=C(C1)NC1=C(C(=O)CC(C)(C)C1)C2c1ccc([N+](=O)[O-])cc1 | > 100 |  | > 100 | > 100 | > 100 | > 100 | > 100 | > 100 | > 100 | > 100 | > 100 | > 100 | > 100 |
| Cc1ccc(N=N/C(=N/NC(=O)c2cc(Cl)ccc2C(=O)c2ccccc2)c2ccc(N(CCC#N)CCC#N)cc2C)cc1 | 79.3 |  | 27.9 |  | > 100 | 51.8 | 31.5 | 39.9 | > 100 | 47.2 | > 100 | > 100 | 24.8 |
| C=C(C)CC1(O)C(=O)C(OCC)=C1OCC (stereo not drawn) | > 100 |  | > 100 | > 100 | > 100 | > 100 | > 100 | > 100 | > 100 | > 100 | > 100 | > 100 | > 100 |
| Cc1ccc(S(=O)(=O)N2C[C@](O)(c3ccccc3)[C@H]2C)cc1 | > 100 |  | > 100 | > 100 | > 100 | > 100 | > 100 | > 100 | > 100 | > 100 | > 100 | > 100 | > 100 |
